{
  "source": "patent US20050065212A1",
  "about": "“Use of at least one 10-hydroxy-2-decenoic acid derivative in compositions for treating the cuteous signs of aging” (priority 2001, published 2005)",
  "key": {"[1]": {"system": "interstitial collagenase (type-1 metalloprotease, MMP-1) production by A2058 cells", "test": "Production of interstitial collagenase in A2058 cell culture (ELISA, Biotrack human MMP1)", "assay_type": "cell-based", "description": "(§1) The effect of 2-dimethylaminoethyl 10-hydroxy-2-decenoate on the production of interstitial collagenase was evaluated in a culture model of A2058 cells (derived from human melanomas: Templeton N. S. et al. 1990; Cancer Res., 50:5431-5431) and in a culture model of HT1080 cells derived from a human fibrosarcoma (American type Culture Collection: reference CCL 121).\n(§2) The A2058 cells constitutively express and secrete type-1 metalloprotease. The HT1080 cells express little type-1 metalloprotease in the basal state, but this expression is increased in the presence of TPA.\n(§3) The cells are incubated in an MEM medium without phenol red, containing amino acids at a concentration of 2 mM, sodium pyruvate at a concentration of 1 mM and calf serum containing 10% […]. They are then cultured at a density of 20 000 cells per well in the 24 wells of a multiwell plate.\n(§4) Twenty-four hours after culturing, the cells are placed in contact with 2-dimethylaminoethyl 10-hydroxy-2-decenoate at a concentration of 25 μg/ml. The production of the interstitial collagenase is evaluated 96 hours later in the culture medium. This is performed using an ELISA kit (Biotrack human MMP1; Amersham).\n(§5) The results are expressed as a percentage of reduction of the production of interstitial collagenase relative to the control, i.e. relative to culturing performed under the same conditions in the absence of derivative."}, "[2]": {"system": "interstitial collagenase (type-1 metalloprotease, MMP-1) production by HT1080 cells", "test": "Production of interstitial collagenase in HT1080 cell culture (ELISA, Biotrack human MMP1)", "assay_type": "cell-based", "conditions": "for percentage of reduction of the production of interstitial collagenase relative to the control: compound 25 μg/ml, culture medium 96 hours after contact", "description": "as §1, §2, §3, §4, §5"}},
  "data": [
    {"smiles": "CN(C)CCOC(=O)/C=C/CCCCCCCO", "note": "[2-dimethylaminoethyl 10-hydroxy-2-decenoate]", "values": [
      {"measurement": "percentage of reduction of the production of interstitial collagenase relative to the control", "setting": "[1]; A2058 cells, compound 25 μg/ml, culture medium 96 hours after contact", "value": 70, "unit": "%"},
      {"measurement": "effect on production of interstitial collagenase (in words)", "setting": "[1]; A 2058 cells, dose of 25 μg/ml", "value": "reduces the production of interstitial collagenase"},
      {"measurement": "percentage of reduction of the production of interstitial collagenase relative to the control", "setting": "[2]; HT1080 with TPA", "value": 50, "unit": "%"},
      {"measurement": "percentage of reduction of the production of interstitial collagenase relative to the control", "setting": "[2]; HT1080 without TPA", "value": 55, "unit": "%"},
      {"measurement": "effect on production of interstitial collagenase (in words)", "setting": "[2]; HT61080 cells as printed, dose of 25 μg/ml", "value": "reduces the production of interstitial collagenase"}
    ]}
  ]
}
